Results published in ChEMBL document CHEMBL1134822, “Trifluoromethyl-containing 3-alkoxymethyl- and 3-aryloxymethyl-2-pyridinones are potent inhibitors of HIV-1 non-nucleoside reverse transcriptase” (Bioorg Med Chem Lett, 2001).

Legend:
[1] = test system: Human immunodeficiency virus 1; experiment: Antiviral activity against HIV-1 in MT-2 (human leukemia) cells in vitro.; type: functional
[2] = molecular target: Human immunodeficiency virus type 1 reverse transcriptase (Human immunodeficiency virus 1, UniProt Q72547); experiment: Inhibition of the NNRTI HIV-1 enzyme by 50% using enzyme assay.
[3] = test system: HIV-1 reverse transcriptase (Human immunodeficiency virus 1); experiment: Compound was evaluated for its ability to inhibit the mutant K103N L1001 NNRTI HIV-1 enzyme
[4] = test system: Human immunodeficiency virus type 1 reverse transcriptase (Human immunodeficiency virus 1), Q72547 [K103N,P225H]
[5] = test system: HIV-1 reverse transcriptase (Human immunodeficiency virus 1); experiment: Compound was evaluated for its ability to inhibit the mutant K103N V1081NNRTI HIV-1 enzyme
[6] = test system: HIV-1 reverse transcriptase (Human immunodeficiency virus 1); experiment: Compound was evaluated for its ability to inhibit the mutant K103N NNRTI HIV-1 enzyme
[7] = test system: HIV-1 reverse transcriptase (Human immunodeficiency virus 1); experiment: Compound was evaluated for its ability to inhibit the NNRTI HIV-1 enzyme by 90% using whole cell assay

SMILES | IC90 [1] | IC50 [2] | other results
Oc1ncccc1C(C#CC1CC1)(OCc1ccccc1)C(F)(F)F (stereo not given) | 182 nM | 11800 nM | 
Oc1ncccc1C(C#CC1CC1)(Oc1cccc(Oc2ccccc2)c1)C(F)(F)F (stereo not given) | > 1140 nM | 24300 nM | 
CCc1cc(C(C#CC2CC2)(OCc2ccccc2)C(F)(F)F)c(O)nc1C (stereo not given) |  |  | IC90 [3]: 668 nM; IC90 [4]: 283 nM; IC90 [5]: 1210 nM; IC90 [6]: 113 nM; IC90 [7]: 46 nM
Oc1ncccc1C(/C=C/c1ccccc1)(OCc1ccccc1)C(F)(F)F (stereo not given) | > 1300 nM | 43900 nM | 
Oc1nc2ccccc2cc1C(C#CC1CC1)(OCc1ccccc1)C(F)(F)F (stereo not given) | 579 nM | 36000 nM | 
CCc1cc(C(C#CC2CC2)(OCc2c(Cl)cccc2Cl)C(F)(F)F)c(O)nc1C (stereo not given) | 157 nM | 41100 nM | 
O=C1Nc2ccc(Cl)cc2[C@@](C#CC2CC2)(C(F)(F)F)N1 |  |  | IC90 [4]: 73 nM; IC90 [5]: 38 nM; IC90 [6]: 10 nM; IC90 [7]: 2 nM
O=C1Nc2ccc(Cl)cc2[C@@](/C=C/C2CC2)(C(F)(F)F)N1 |  |  | IC90 [4]: 140 nM; IC90 [5]: 90 nM
Oc1ncccc1C(C#CC1CC1)(OCc1cccnc1)C(F)(F)F (stereo not given) | > 1440 nM | 25600 nM | 
Oc1ncccc1C(/C=C/C1CC1)(OCc1ccccc1)C(F)(F)F (stereo not given) | > 1400 nM | 16700 nM | 
Oc1ncccc1C(C#CC1CC1)(OCc1ccccn1)C(F)(F)F (stereo not given) | 1010 nM | 26000 nM | 
CCc1cc(NCc2nc3c(Cl)ccc(Cl)c3o2)c(O)nc1C [L-697661] | 50 nM |  | 

The next lines start with results.

IC90 [1] | IC50 [2] | SMILES | other results
95 nM | 183 nM | CCOC(C#CC1CC1)(c1cc(CC)c(C)nc1O)C(F)(F)F (stereo not given) | 
37 nM | 188 nM | CCc1cc(C(C#CC2CC2)(OCC2CC2)C(F)(F)F)c(O)nc1C (stereo not given) | 
61 nM | 6090 nM | CCc1cc(C(C#CC2CC2)(OCc2c(F)cccc2Cl)C(F)(F)F)c(O)nc1C (stereo not given) | 
1400 nM | 1840 nM | CCc1cc(C(C#CC2CC2)(OCC#N)C(F)(F)F)c(O)nc1C (stereo not given) | 
32 nM | 105 nM | CCCOC(C#CC1CC1)(c1cc(CC)c(C)nc1O)C(F)(F)F (stereo not given) | 
579 nM | 3840 nM | CCc1cc(C(C#CC2CC2)(OCc2cc(OC)cc(OC)c2)C(F)(F)F)c(O)nc1C (stereo not given) | 
201 nM | 770 nM | CCc1cc(C(C#CC2CC2)(OC)C(F)(F)F)c(O)nc1C (stereo not given) | 
431 nM | 8110 nM | Oc1ncccc1C(C#CC1CC1)(OCc1ccncc1)C(F)(F)F (stereo not given) | 
49 nM | 613 nM | CCc1cc(C(C#CC2CC2)(OCc2c(F)cccc2F)C(F)(F)F)c(O)nc1C (stereo not given) | 
190 nM | 2700 nM | CCc1cc(C(C#CC2CC2)(OCc2ccc(Cl)cc2Cl)C(F)(F)F)c(O)nc1C (stereo not given) | 
 | 1350 nM | CCc1cc(C(C#CC2CC2)(OCc2ccccc2)C(F)(F)F)c(=O)[nH]c1C (stereo not given) | 
42 nM | 129 nM | CCCCOC(C#CC1CC1)(c1cc(CC)c(C)nc1O)C(F)(F)F (stereo not given) | 
> 1300 nM | 11700 nM | Oc1ncccc1C(C#Cc1ccccc1)(OCc1ccccc1)C(F)(F)F (stereo not given) | 
160 nM | 1950 nM | CCc1cc(C(C#CC2CC2)(OCc2c(F)cccc2OC)C(F)(F)F)c(O)nc1C (stereo not given) | 
